# Values quoted from earlier work as cited in PubChem BioAssay AID1259409 (Chemical Carcinogenesis Research Information System (CCRIS), 2018).
# Tested on: rodent chemically induced tumor inhibition, incidence and multiplicity
# Experiment: CCRIS tumor inhibitor studies
# Conditions: Carcinogen: 2,2'-DIHYDROXY-DI-N-PROPYLNITROSAMINE, 53609-64-6, 13147-25-6, Carcinogen: 2,2'-DIHYDROXY-DI-N-PROPYLNITROSAMINE, 53609-64-6, 13147-25-6, Dose [Inhibitor]: 0, Route [Inhibitor]: ORAL, Species: RAT, Strain/Sex: F344/MALE, Promoter: NONE USED
smiles,measurement,setting,value
O=C(OC[C@@H]1O[C@H](OC(=O)c2cc(O)c(O)c(OC(=O)c3cc(O)c(O)c(O)c3)c2)[C@@H](OC(=O)c2cc(O)c(O)c(OC(=O)c3cc(O)c(O)c(O)c3)c2)[C@H](OC(=O)c2cc(O)c(O)c(OC(=O)c3cc(O)c(O)c(O)c3)c2)[C@H]1OC(=O)c1cc(O)c(O)c(OC(=O)c2cc(O)c(O)c(O)c2)c1)c1cc(O)c(O)c(OC(=O)c2cc(O)c(O)c(O)c2)c1,"tumour outcome (control, treated, inhibition, significance)","N-ETHYL-N-HYDROXYETHYL- NITROSAMINE, 3,2'-DIMETHYL-4-, N-ETHYL-N-HYDROXYETHYL- NITROSAMINE, 3,2'-DIMETHYL-4-, 1% IN DIET BEGINNING 1 WK POST LAST CARCINOGEN DOSE AND CONTINUING FOR 32 WK (STUDY DURATION: 36 WK), Target Tissue: Type of Lesion: LARGE INTESTINE: ADENOMA, Dose [Carcinogen]: 1000 MG/KG IP DHPN 2X, 1500 MG/KG GAV EHEN 2X AND 75 MG/KG SC DMAB GIVEN OVER THE INITIAL 3 WK PERIOD AT 3-4 D INTERVALS","7/14 (50%), 2/12 (17%), 66%, not calculated"
same,"tumour outcome (control, treated, inhibition, significance)","N-ETHYL-N-HYDROXYETHYL- NITROSAMINE, 3,2'-DIMETHYL-4-, N-ETHYL-N-HYDROXYETHYL- NITROSAMINE, 3,2'-DIMETHYL-4-, 1% IN DIET BEGINNING 1 WK POST LAST CARCINOGEN DOSE AND CONTINUING FOR 32 WK (STUDY DURATION: 36 WK), Target Tissue: Type of Lesion: LARGE INTESTINE: CARCINOMA, Dose [Carcinogen]: 1000 MG/KG IP DHPN 2X, 1500 MG/KG GAV EHEN 2X AND 75 MG/KG SC DMAB 3X GIVEN OVER THE INITIAL 3 WK AT 3-4 D INTERVALS","3/14 (21%), 1/12 (8%), 62%, not calculated"
same,"tumour outcome (control, treated, inhibition, significance)","N-ETHYL-N-HYDROXYETHYL- NITROSAMINE, 3,2'-DIMETHYL-4-, N-ETHYL-N-HYDROXYETHYL- NITROSAMINE, 3,2'-DIMETHYL-4-, 1% IN DIET BEGINNING 1 WK POST LAST CARCINOGEN DOSE AND CONTINUING FOR 32 WK (STUDY DURATION: 36 WK), Target Tissue: Type of Lesion: LUNG: ADENOMA, Dose [Carcinogen]: 1000 MG/KG IP DHPN 2X, 1500 MG/KG GAV EHEN 2X AND 75 MG/KG SC DMAB 3X GIVEN OVER THE INITIAL 3 WK AT 3-4 D INTERVALS","7/14 (50%), 7/12 (58%), -16%, not calculated"
same,"tumour outcome (control, treated, inhibition, significance)","N-ETHYL-N-HYDROXYETHYL- NITROSAMINE, 3,2'-DIMETHYL-4-, N-ETHYL-N-HYDROXYETHYL- NITROSAMINE, 3,2'-DIMETHYL-4-, 1% IN DIET BEGINNING 1 WK POST LAST CARCINOGEN DOSE AND CONTINUING FOR 32 WK (STUDY DURATION: 36 WK), Target Tissue: Type of Lesion: LUNG: CARCINOMA, Dose [Carcinogen]: 1000 MG/KG IP DHPN 2X, 1500 MG/KG GAV EHEN 2X AND 75 MG/KG SC DMAB 3X GIVEN OVER THE INITIAL 3 WK PERIOD AT 3-4 D INTERV","1/14 (7%), 2/12 (17%), -143%, not calculated"
same,"tumour outcome (control, treated, inhibition, significance)","N-ETHYL-N-HYDROXYETHYL- NITROSAMINE, 3,2'-DIMETHYL-4-, N-ETHYL-N-HYDROXYETHYL- NITROSAMINE, 3,2'-DIMETHYL-4-, 1% IN DIET BEGINNING 1 WK POST LAST CARCINOGEN DOSE AND CONTINUING FOR 32 WK (STUDY DURATION: 36 WK), Target Tissue: Type of Lesion: URINARY BLADDER: CARCINOMA, Dose [Carcinogen]: 1000 MG/KG IP DHPN 2X, 1500 MG/KG GAV EHEN 2X AND 75 MG/KG SC DMAB 3X GIVEN OVER THE INITIAL 3 WK PERIOD AT 3-4 D INTERV","1/14 (7%), 2/12 (17%), -143%, not calculated"
same,outcome,"N-ETHYL-N-HYDROXYETHYL- NITROSAMINE, 3,2'-DIMETHYL-4-, N-ETHYL-N-HYDROXYETHYL- NITROSAMINE, 3,2'-DIMETHYL-4-, 1% IN DIET BEGINNING 1 WK POST LAST CARCINOGEN DOSE AND CONTINUING FOR 32 WK (STUDY DURATION: 36 WK), Target Tissue: Type of Lesion: URINARY BLADDER: PAPILLOMA, Dose [Carcinogen]: 1000 MG/KG IP DHPN 2X, 1500 MG/KG GAV EHEN 2X AND 75 MG/KG SC DMAB 3X GIVEN OVER THE INITIAL 3 WK PERIOD AT 3-4 D INTERV","0/14 (0%), 3/12 (25%), -100%, not calculated"
same,"tumour outcome (control, treated, inhibition, significance)","N-ETHYL-N-HYDROXYETHYL- NITROSAMINE, 3,2-DIMETHYL-4-A, N-ETHYL-N-HYDROXYETHYL- NITROSAMINE, 3,2-DIMETHYL-4-A, 1% IN DIET BEGINNING 1 WK POST LAST CARCINOGEN DOSE AND CONTINUING FOR 32 WK (STUDY DURATION: 36 WK), Target Tissue: Type of Lesion: LIVER: HEPATOCELLULAR CARCINOMA, Dose [Carcinogen]: 100 MG/KG IP DHPN 2X, 1500 MG/KG GAV EHEN 2X AND 75 MG/KG SC DMAB 3X GIVEN OVER THE INITIAL 3 WK PERIOD AT 3-4 D INTERVA","6/14 (43%), 3/12 (25%), 42%, not calculated"
same,"tumour outcome (control, treated, inhibition, significance)","N-ETHYL-N-HYDROXYETHYLNITROSAMINE, 3,2'-DIMETHYL-1,4-, N-ETHYL-N-HYDROXYETHYLNITROSAMINE, 3,2'-DIMETHYL-1,4-, 1% IN DIET FOR 4 WK BEGINNING 1 D PRIOR TO FIRST CARCINOGEN DOSE (STUDY DURATION: 36 WK), Target Tissue: Type of Lesion: KIDNEY: ADENOMA, Dose [Carcinogen]: 1000 MG/KG BW DHPN TWICE, 1500 MG/KG THEN TWICE, 75 MG/KG BW DMAB 3 TIMES, SEQUENTIALLY OVER 3 WK","6/10 (60%), 6/12 (50%), 17%, not significant"
same,"tumour outcome (control, treated, inhibition, significance)","N-ETHYL-N-HYDROXYETHYLNITROSAMINE, 3,2'-DIMETHYL-1,4-, N-ETHYL-N-HYDROXYETHYLNITROSAMINE, 3,2'-DIMETHYL-1,4-, 1% IN DIET FOR 4 WK BEGINNING 1 D PRIOR TO FIRST CARCINOGEN DOSE (STUDY DURATION: 36 WK), Target Tissue: Type of Lesion: LUNG: ADENOMA, Dose [Carcinogen]: 1000 MG/KG BW DHPN TWICE, 1500 MG/KG THEN TWICE, 75 MG/KG BW DMAB 3 TIMES, SEQUENTIALLY OVER 3 WK","5/10 (50%), 7/12 (58%), -16%, not significant"
same,"tumour outcome (control, treated, inhibition, significance)","N-ETHYL-N-HYDROXYETHYLNITROSAMINE, 3,2'-DIMETHYL-4-AMINO-, N-ETHYL-N-HYDROXYETHYLNITROSAMINE, 3,2'-DIMETHYL-4-AMINO-, 1% IN DIET FOR 32 WK BEGINNING 1 WK POST CARCINOGEN TREATMENT (STUDY DURATION: 36 WK), Target Tissue: Type of Lesion: KIDNEY: NEPHROBLASTOMA, Dose [Carcinogen]: 1000 MG/KG BW DHPN TWICE, 1500 MG/KG BW THEN TWICE, 75 MG/KG BW DMAB 3 TIMES ADMINISTERED OVER FIRST 3 WK","2/14 (14%), 0/12 (0%), 100%, not significant"
